Measured values as given in ChEMBL document CHEMBL4811302, “Solid-phase synthesis of curcumin mimics and their anticancer activity against human pancreatic, prostate, and colorectal cancer cell lines” (Bioorg Med Chem, 2021).
Calls of active or inactive are those of the source. No cut-off for these calls is given here.

What was measured:
[1] = test system: PC-3; test: Antiproliferative activity against human PC-3 cells assessed as cell death at 100 uM incubated for 72 hrs by trypan blue assay (reference value: 3%); assay type: functional
[2] = test system: PC-3; test: Antiproliferative activity against human PC-3 cells assessed as reduction in cell growth at 100 uM incubated for 72 hrs by trypan blue assay relative to control; assay type: functional
[3] = test system: PANC-1; test: Antiproliferative activity against human PANC-1 cells assessed as cell death at 100 uM incubated for 72 hrs by trypan blue assay relative to control; assay type: functional, cell-based
[4] = test system: SW480; test: Antiproliferative activity against human SW480 cells assessed as reduction in cell growth at 100 uM incubated for 72 hrs by trypan blue assay relative to control; assay type: functional
[5] = test system: PANC-1; test: Antiproliferative activity against human PANC-1 cells assessed as reduction in cell growth at 100 uM incubated for 72 hrs by trypan blue assay relative to control; assay type: functional
[6] = Stability of compound in simulated intestinal fluid assessed as parent compound remaining at pH 6.8 at 1 mM measured after 48 hrs by HPLC analysis; assay type: ADME; conditions: simulated gi fluid, pH 6.8, 48 h, 1000 µM
[7] = Stability of compound in human serum assessed as parent compound remaining measured upto 96 hrs by HPLC analysis; assay type: ADME, cell-free
[8] = Stability of compound in alkaline phosphatase by HPLC analysis; assay type: ADME
[9] = Stability of compound in simulated gastric fluid assessed as drug degradation at pH 1.2 at 1 mM measured after 48 hrs by HPLC analysis; assay type: ADME; conditions: read-out: Drug degradation
[10] = test system: SW480; test: Antiproliferative activity against human SW480 cells assessed as cell death at 100 uM incubated for 72 hrs by trypan blue assay relative to control; assay type: functional, cell-based

Row | SMILES | Activity [1] | inhibition [2] | Activity [3] | inhibition [4] | inhibition [5] | Stabilty [6] | Stabilty [7] | Stabilty [8] | degraded at 48 h, 1000 µM [9] | Activity [10] | inhibition at 100 µM [4] | inhibition at 100 µM [2] | inhibition at 100 µM [5]
1 | O=P([O-])(OCCc1ccc(O)cc1)OCCc1ccc(O)cc1.[Na+] | Active | Active | Active | Active | inactive | Stable | Stable | Stable | < 5% | – | – | – | –
2 | O=P([O-])(OCCc1ccc(O)cc1)OCCc1ccc(O)c(O)c1.[Na+] | Active | Active | Active | Active | inactive | Stable | Stable | Stable | < 5% | – | – | – | –
3 | O=P([O-])(OCCc1ccc(O)c(O)c1)OCCc1ccc(O)c(O)c1.[Na+] | Active | Active | Active | – | inactive | Stable | Stable | Stable | < 5% | Active | 25% | – | –
4 | COc1cc(CCOP(=O)([O-])OCCc2ccc(O)cc2)ccc1O.[Na+] | 23% | – | Active | Active | inactive | Stable | Stable | Stable | < 5% | – | – | 28% | –
5 | COc1cc(CCO)ccc1O | Active | inactive | Active | – | inactive | – | – | – | – | – | 12% | – | –
6 | COc1cc(CCOP(=O)([O-])OCCc2ccc(O)c(OC)c2)ccc1O.[Na+] | Active | Active | Active | Active | inactive | Stable | Stable | Stable | < 5% | – | – | – | –
7 | OCCc1ccc(O)c(O)c1 [HYDROXYTYROSOL] | – | – | Active | – | – | – | – | – | – | – | 38% | 33% | 15%
8 | OCCc1ccc(O)cc1 [TYROSOL] | 7% | – | Active | – | inactive | – | – | – | – | – | 12% | 13% | –
9 | COc1cc(CCOP(=O)([O-])OCCc2ccc(O)c(O)c2)ccc1O.[Na+] | Active | Active | Active | – | inactive | Stable | Stable | Stable | < 5% | Active | 15% | – | –
